Where a SMILES comes first, the peptide text is derived from it. [ ]: non-standard residue; d: D form. Orn(N5-OH,N5-Ac) = CC(=O)N(O)CCC[C@H](N)C(=O)O
Assays:
[1] = molecular target: T1, PiaA (Streptococcus pneumoniae, UniProt A0A0H2UPT5, W63A); test: ITC; type: binding
T1 construct: gene SP_1032; residues Asn23-Lys341, N-terminal 6×His-tag
T1 sequence (A0A0H2UPT5 23-341 W63A): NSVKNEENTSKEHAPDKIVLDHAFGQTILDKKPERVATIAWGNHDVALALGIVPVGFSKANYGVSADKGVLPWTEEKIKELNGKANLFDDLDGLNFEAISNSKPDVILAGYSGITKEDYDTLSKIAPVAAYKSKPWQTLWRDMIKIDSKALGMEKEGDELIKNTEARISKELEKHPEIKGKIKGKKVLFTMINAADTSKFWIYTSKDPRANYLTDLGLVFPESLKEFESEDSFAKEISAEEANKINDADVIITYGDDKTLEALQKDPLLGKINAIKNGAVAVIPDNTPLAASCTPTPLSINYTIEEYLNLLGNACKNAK

[2] = molecular target: T2, PiaA (Streptococcus pneumoniae, UniProt A0A0H2UPT5); test: ITC and crystal structure ([…] Å); type: binding
T2 construct: gene SP_1032; residues Asn23-Lys341, N-terminal 6×His-tag

Q: `CC(=O)N([O-])CCC[C@@H]1NC(=O)CNC(=O)CNC(=O)CNC(=O)[C@H](CCCN([O-])C(C)=O)NC(=O)[C@H](CCCN([O-])C(C)=O)NC1=O.[Fe+3]` [ferrichrome] (cyclo(GGG[Orn(N5-OH,N5-Ac)][Orn(N5-OH,N5-Ac)][Orn(N5-OH,N5-Ac)])) was tested. Which Kd [1] did it give?
A: Its Kd is ~32.8 nM.

Q: What about the Kd [2] of the same compound?
A: Its Kd is 5.8 ± 1.4 nM.

Source: publication PMC3741162, “Structures of Streptococcus pneumoniae PiaA and Its Complex with Ferrichrome Reveal Insights into the Substrate Binding and Release of High Affinity Iron Transporters” (PLoS ONE, 2013)
